# Assay results: patent US12109253B2, “Use of IGFBP7 for treating malaria” (AGENCY FOR SCIENCE, TECHNOLOGY AND RESEARCH, priority 2019, dated 2024)
# Where “and” joins values, the source holds several entries; their conditions need not be identical. Equal entries are not always repeated.
# Assays:
# P. falciparum = experiment: Rosetting assay (percentage of IRBC that form rosettes), P. falciparum; type: cell-based, Plasmodium falciparum; settings: for effect on rosetting rates of TSP-1 and VWF without IGFBP7: Albumax-supplemented medium, TSP-1 and VWF present together
# Protocol: (§1) Rosetting assay was conducted when 70% of the parasite population reached late stages (late trophozoites and schizonts) unless stated otherwise. The parasite culture suspension was stained subvitally with Giemsa (5% stain working concentration) for 20 minutes. Subsequently, 7.6 μl stained suspension was pipetted onto a clean glass slide, immediately covered with a 22×32 mm glass cover slip. The wet mount was examined with light microscope using 1000× magnification. Rosetting rate (percentage of rosetting IRBCs) was defined as the percentage of IRBC (over 200 recruited IRBC) that form rosettes. Experiments were conducted in blinded manner.
# (§2) Following data review, coupled with critical information (i.e. the protein's subcellular location and cellular functions) from UNIPROT, candidates were shortlisted for further validation. The parasite culture suspensions were incubated with CSMT and antibodies against the shortlisted proteins (see Table 6, items 35, 37, 39-41) and tested in rosetting assay at a final concentration of 25 μg/ml.
# (§3) The parasite culture suspension was divided into three groups, one served as control, the second group was added with recombinant human IGFBP7 (final concentration 100 ng/ml), and the third group was mixed with CSMT (CSMT:parasite culture=1:3). After one hour of incubation under in vitro cultivation conditions, rosetting assay was conducted. Separately, a portion of the IGFBP7 suspension was heat-denatured at 95° C. for one hour, prior to use in rosetting assay.
# (§4) Parasite cultures were incubated with IGFBP7 (working concentrations 0-25,000 ng/ml) prior to rosetting assay. Time course experiments were performed with laboratory-adapted P. falciparum lines (3D7, MKK183, FVT402, FVT201, WPP3065) incubated with IGFBP7 (100 ng/ml). Rosetting assay was conducted after five minutes, using 7 μl of the suspension. The remaining suspension was kept back into the incubator. Rosetting assay was repeated at five minute-intervals until one hour-post-IGFBP7 exposure. Reversibility of IGFBP7-mediated rosette-stimulation was also tested. Parasite lines (3D7, MKK183, FVT402, FVT201, WPP3065) were incubated with IGFBP7 (100 ng/ml) and rosetting assay was conducted with 7 μl of the suspension. The remaining suspension was centrifuged at 1500 g for five minutes. Supernatant was removed, and the pellet was washed thrice with culture medium, followed by re-suspension with culture medium. Five minutes later, 7 μl of the suspension was taken for rosetting assay, subsequently repeated at five minute-intervals up to one-hour post-IGFBP7 removal.
# (§5) Magnetic activated cell sorter (MACS)-sorted late stage-IRBC (purity 95%) were trypsinized at different working concentrations. The first group was mixed with enzyme trypsin (final trypsin concentration of 10 μg/ml), and the second was mixed with enzyme trypsin (final trypsin concentration of 1 mg/ml). The third served as untreated control. The cells were incubated at 37° C. for 30 minutes. After that, the cells were washed with serum-enriched medium for three times. Each group was incubated with or without IGFBP7 (100 ng/ml) prior to rosetting assay. P. falciparum line CS2 deficient of SBP1 [(SBP1-KO-CS2), which lacks P. falciparum erythrocyte membrane protein 1 (PFEMP1) on its IRBC surface] and its wild type (CS2-WT) counterpart were cultured as described. Their rosetting rates post-incubation with IGFBP7 at different concentrations were determined. P. falciparum clones NF54 VAR2CSA_WT and NF54_T934D (cannot express PfEMP1 variant VAR2CSA on IRBC surface^32) were cultivated. Experiments were conducted when parasite population reached late stages. For each parasite line, two conditions were applied; one was incubated with IGFBP7 (100 ng/ml) whereas the other one acted as IGFBP7-free control. Rosetting assay was conducted afterwards. Five replicates were conducted for each experiment setting. […]
# [1] = system: cytoadhesive properties of infected erythrocytes; settings: adjunct treatment candidate, phase II clinical trial; cited from earlier work
# THP-1 [2] = experiment: IRBC phagocytosis by THP-1; type: cell-based, human
# THP-1 [3] = experiment: Zymosan A phagocytosis by THP-1 (control experiment); type: cell-based, human; settings: IGFBP7 100 ng/ml one hour, then Zymosan A 10 μg/ml one hour
# Protocol: THP-1 is cultivated and expanded into three batches. For each batch of culture, 1×10^6 cells were incubated with IGFBP7 (working concentration 100 ng/ml) for one hour at in vitro cultivation conditions. Another set of cells acted as IGFBP7-free control. Subsequently, Zymosan A (working concentration 10 μg/ml) was added to both sets of cells and incubated for another one hour at in vitro cultivation conditions. Supravital staining with Giemsa was done for 15 minutes following this. Using wet mount technique, the percentage of THP-1 cells which has engulfed Zymosan A was determined as phagocytosis rate by recruiting 1,000 THP-1 cells. The experiment was repeated with the other two batches of THP-1 culture. And all the steps were repeated for another two times using THP-1 cultures thawed at different time points. P. falciparum lines (3D7, MKK183, FVT402, FVT201, CS2_WT) were incubated with or without IGFBP7 in serum-enriched medium prior to rosetting assay. Subsequently, THP-1 were added. Using wet mount technique, the IRBC phagocytosis rates were determined following the same formula to determine phagocytosis rate in the Zymosan A experiment. […]
# peripheral monocytes = experiment: IRBC phagocytosis by CD14+ peripheral monocytes; type: cell-based, human; settings: IGFBP7 100 ng/ml, Pf line NHP1106, biological replicates
# hCMEC/D3 = experiment: IRBC-endothelial cytoadhesion to hCMEC/D3; type: cell-based, Plasmodium falciparum
# Description: Following this we investigated the relationship between IGFBP7, rosetting and IRBC-endothelial cytoadhesion. As expected, IGFBP7 stimulated rosetting of the recruited laboratory-adapted P. falciparum. […] How about the already endothelial-cytoadhered IRBCs? […] Clearly, presence of IGFBP7 interfered with the dynamics between IRBC-endothelial cytoadhesion and IRBC-rosetting.
# Is the IGFBP7-induced reversal of IRBC-endothelial cytoadhesion mediated via the IGFBP7-stimulated rosetting? Or are the two events occurring concomitantly? […] The two events are likely to happen in parallel instead of being a cause-effect relationship.
# P. vivax = experiment: Rosetting assay (percentage of IRBC that form rosettes), P. vivax; type: cell-based, Plasmodium vivax
# Protocol: as §1, §2, §3, §4, §5
# [4] = system: Plasmodium berghei ANKA line expressing luciferase (PbAluc); experiment: Experimental cerebral malaria (ECM) in PbAluc infected C57BL/6 mice; type: in vivo
# Protocol: Here, we set out to determine the effect of IGFBP7 administration on mice. In particular, we set out to determine the dose and protection from ECM death of mouse IGFBP7 administered i.v. on days 5-12 post-infection (dpi) to Plasmodium berghei ANKA line expressing luciferase (PbAluc) infected C57BL/6 mice.
# IGFBP7 was suspended in 1×PBS (concentrations: 0, 50, 100, 200, 1000, and 5000 ng/ml). A separate aliquot of IGFBP7 (5000 ng/ml) was prepared and boiled for one hour, to be used as control.
# For each protein concentration group, I.V. administration of 100 μl per mouse was done.
# Mice were infected with PbAluc. Prior to infection, an aliquot of serum was collected for each mouse using blood collected through orbital bleeding. Sera were also collected on days 3 and 6 post-infection (dpi) for further testing in future.
# I.V. administration was done on daily basis from 5-12 dpi. The n number for each concentration group was 8 except group 5 ng/mouse (n=7) and group 500 ng/mouse (n=5).
# The mice were monitored daily, and their signs and symptoms were observed. Dead mice were removed.
# Survival of mice within the experimental cerebral malaria (ECM) period (6-12 dpi) across the experimental groups was recorded.
# Mice that survived the ECM period were monitored until their death by malaria-induced anemia.
# [5] = Albumax-supplemented medium with IGFBP7 100 ng/ml and TSP-1 10 ng/ml
substance,measurement,setting,value
"TSP-1: rhTSP-1 (thrombospondin-1), serum co-factor of IGFBP7-mediated rosetting",effect on rosetting rates of TSP-1 and VWF without IGFBP7,P. falciparum,could not increase the rosetting rates
same,TSP-1 concentration enough to optimally facilitate IGFBP7-mediated rosette-stimulation,"P. falciparum; serum-free (Albumax-supplemented medium), IGFBP7 100 ng/ml, with VWF",10 ng/mL
"VWF: Recombinant human VWF (rhVWF), serum co-factor of IGFBP7-mediated rosetting",VWF concentration at which optimal increment attained,P. falciparum; [5],0.5 IU/ml
same,VWF concentration sufficient to significantly increase rosetting rates,P. falciparum; [5],0.125 IU/ml
same,effect on rosetting rates of TSP-1 and VWF without IGFBP7,P. falciparum,could not increase the rosetting rates
same,effect of VWF by itself on rosetting,"P. falciparum; VWF 1 IU/ml, no IGFBP7, 20% and 2% serum medium",did not stimulate rosetting
Curdlan sulfate,effect on pathology of patients,[1],reduce the severe pathology development
insulin-like growth factor binding protein 7 [IGFBP7],phagocytosis rates,"THP-1 [2]; THP-1, IGFBP7 100 ng/ml, Pf line NHP1106, biological replicates",10.0% (2×) and 5.0% and 11.0% and 8.0%
same,IRBC phagocytosis compared with non-IGFBP7-exposed counterparts,"THP-1 [2]; five different P. falciparum lines, IGFBP7-incubated prior to THP-1 exposure",significantly less phagocytosed
same,effect on phagocytosis ability of THP-1,THP-1 [3],increased
same,phagocytosis rates,peripheral monocytes,6.0% and 10.0% and 9.0% and 11.0% and 4.0%
same,effect on rosetting rates with VWF in Albumax medium,"P. falciparum; 0.25% Albumax II medium, IGFBP7 100 ng/ml, VWF 0-2.0 IU/ml, no TSP-1",did not significantly increase rosetting rates
same,IGFBP7-induced rosetting in filtered serum,"P. falciparum; 20% human serum filtered with 0.45 μm filter, IGFBP7 100 ng/ml",abolished
same,rosette-stimulating capacity after heat denaturation,"P. falciparum; 95° C. for one hour, Pf n=5",abolished
same,effect on rosetting rate,P. falciparum; CS2 wild-type parasite,increased
same,effect on rosetting of trypsin-treated IRBC,"P. falciparum; IRBC treated with 10 μg/ml or 1 mg/ml trypsin, IGFBP7 100 ng/ml, Pf n=5",did not significantly alter rosetting
same,rosetting rates,"P. falciparum; NF54 T934D (no VAR2CSA on IRBC surface), IGFBP7 100 ng/ml, one hour, biological replicates",0.5% (2×) and 1.5% (2×) and 1.0%
same,rosetting rates,"P. falciparum; NF54 VAR2CSA_WT, IGFBP7 100 ng/ml, one hour, biological replicates",5.0% and 7.0% and 4.5% and 4.0% and 6.5%
same,rosetting rates,"P. falciparum; Pf co-incubated with THP-1, IGFBP7 100 ng/ml, biological replicates",11.0% and 13.0% and 16.0% and 9.0% and 10.0%
same,rosetting rates,"P. falciparum; Pf co-incubated with monocytes, IGFBP7 100 ng/ml, biological replicates",14.0% and 18.0% and 15.0% and 17.0% and 10.0%
same,concentration at which significant rosette-stimulation noted,"P. falciparum; Pf n=7, one hour incubation, 0-25,000 ng/ml tested",50 ng/mL
same,concentration from which significant rosette-stimulation was noted,P. falciparum; PfCS2-WT,100 ng/mL
same,effect on rosetting rate,P. falciparum; SBP1-KO-CS2 (no PfEMP1 on IRBC surface),no effect
same,effect on rosetting with URBC of different ABO blood groups,"P. falciparum; URBC groups A, B, O, AB, rhIGFBP7 100 ng/ml, Pf n=7",significantly increase rosetting rates regardless of the blood groups
same,rosetting with heparinase-treated URBC,"P. falciparum; URBC treated with heparinase I or III 25 μg/ml, purified Pf IRBC",did not induce rosetting
same,rosetting rates of IRBCs detached from hCMEC/D3,"P. falciparum; after co-incubation with URBCs and IGFBP7, all parasite lines recruited",5-25%
same,rosette formation prior to THP-1 exposure,"P. falciparum; five different P. falciparum lines, IGFBP7-incubated",formed more rosettes
same,minimum time to significantly stimulate rosetting,"P. falciparum; lab-adapted Pf n=5, IGFBP7 100 ng/ml",≥ 15 min
same,time after protein removal at which rosetting rates revert to baseline,"P. falciparum; lab-adapted Pf n=5, after IGFBP7 100 ng/ml exposure and washing",15 min
same,rosetting rates,"P. falciparum; late ring stages (hour 16-26) of NHP1106, IGFBP7 100 ng/ml, replicates flask/cycle",8.5% and 7.0% (2×) and 8.0% (2×) and 6.0% (3×) and 5.0%
same,concentration at which rosette stimulation reaches a plateau,"P. falciparum; leukocyte-free parasite culture, P. falciparum isolates",100 ng/mL
same,effect on rosetting rates in 2% serum,"P. falciparum; medium with only 2% serum, IGFBP7 100 ng/ml, no VWF added",could not increase rosetting rates
same,cytoadhesion of already hCMEC/D3-cytoadhering IRBCs,hCMEC/D3; incubation of cytoadhering IRBCs with IGFBP7,reduced IRBC-endothelial cytoadhesion
same,IRBC-endothelial cytoadhesion of IGFBP7-primed packed cells,"hCMEC/D3; rosette-stimulated cells then co-incubated with hCMEC/D3, vs non-IGFBP7-primed",lower rate of IRBC-endothelial cytoadhesion
same,rosette-stimulating capacity after heat denaturation,"P. vivax; 95° C. for one hour, Pv n=4",abolished
same,effect on rosetting of trypsin-treated IRBC,"P. vivax; IRBC treated with 10 μg/ml or 1 mg/ml trypsin, IGFBP7 100 ng/ml, Pv n=4",did not significantly alter rosetting
same,concentration at which significant rosette-stimulation noted,"P. vivax; Pv n=7, one hour incubation, 0-25,000 ng/ml tested",50 ng/mL
same,effect on rosetting with URBC of different ABO blood groups,"P. vivax; URBC groups A, B, O, AB, rhIGFBP7 100 ng/ml, Pv n=7",significantly increase rosetting rates regardless of the blood groups
same,rosetting with heparinase-treated URBC,"P. vivax; URBC treated with heparinase I or III 25 μg/ml, purified Pv IRBC",did not induce rosetting
same,concentration at which rosette stimulation reaches a plateau,"P. vivax; leukocyte-free parasite culture, P. vivax isolates",100 ng/mL
same,ECM death compared with control group,"[4]; 10, 20, 100, and 500 ng/mouse i.v. daily 5-12 dpi, vs denatured IGFBP7",significantly lower ECM death
same,survival rate compared with control,"[4]; 10, 20, 100 and 500 ng/mouse i.v. daily 5-12 dpi, vs denatured 500 ng/mouse IGFBP7, till 25 dpi",significant difference in survival rate
same,signs of cerebral malaria,"[4]; groups 10, 20, 100 and 500 ng/mouse, after 8 dpi",reversal of CM signs
same,dose adequate to confer protection from cerebral malaria,[4]; i.v. daily 5-12 dpi,10 ng/mouse
